The values below come from patent publication US7345081B2, “Azabicyclo-octane inhibitors of IAP” (Genentech, Inc., priority 2004, dated 2008).

Assay [1] has as its target T1, MLXBIR3SG (Homo sapiens, UniProt Q96CA5, S150G).
T1 sequence (Q96CA5 with tags, fused parts or gaps S150G): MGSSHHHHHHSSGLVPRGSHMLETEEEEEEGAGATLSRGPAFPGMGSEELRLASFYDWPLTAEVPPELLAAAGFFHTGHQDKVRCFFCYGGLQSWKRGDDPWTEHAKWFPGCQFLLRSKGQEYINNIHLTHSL
Put plainly: TR-FRET peptide binding assay. The conditions noted are these: TR-FRET competition; 300 nM his-tagged MLXBIR3SG, 200 nM biotinylated SMAC peptide (AVPI). As for the experimental part:
The improved caspase-9 inhibition of the chimeric BIR domain MLXBIR3SG has been correlated with increased inhibition of doxorubicin-induced apoptosis when transfected into MCF7 cells. TR-FRET Peptide Binding Assay Time-Resolved Fluorescence Resonance Energy Transfer competition experiments were performed on the Wallac Victor2 Multilabeled Counter Reader (Perkin Elmer Life and Analytical Sciences, Inc.) according to the procedures of Kolb et al (Journal of Biomolecular Screening, 1996, 1(4):203). A reagent cocktail containing 300 nM his-tagged MLXBIR3SG; 200 nM biotinylated SMAC peptide (AVPI); 5 μg/mL anti-his allophycocyanin (XL665) (CISBio International); and 200 ng/mL streptavidin-europium (Perkin Elmer) was prepared in reagent buffer (50 mM Tris [pH 7.2], 120 mM NaCl, 0.1% bovine globulins, 5 mM DTT and 0.05% octylglucoside). […] The reagent cocktail was incubated at room temperature for 30 minutes. […] After a 90 minute incubation at room temperature, the fluorescence was read with filters for the excitation of europium (340 nm) and for the emission wavelengths of europium (615 nm) and a allophycocyanin (665 nm). Antagonist data were calculated as a ratio of the emission signal of allophycocyanin at 665 nm to that of the emission of europium at 615 nm (these ratios were multiplied by a factor of 10,000 for ease of data manipulation). The resulting values were plotted as a function of antagonist concentration and fit to a 4-parameter equation using Kaleidograph software (Synergy Software, Reading, Pa.). Indications of antagonist potency were determined from the IC50 values.
A general note: Time-resolved FRET reads energy transfer from a long-lived donor to a nearby acceptor.

The target in assay [2] is T1, MLXBIR3SG. Put plainly: Fluorescence polarization peptide binding assay. The conditions noted are these: fluorescence polarization competition; for Ki: Ki determined from the IC50 values; for IC50: MLXBIR3SG at 30 nM, 5 nM AVP-diPhe-FAM probe. As for the experimental part:
The improved caspase-9 inhibition of the chimeric BIR domain MLXBIR3SG has been correlated with increased inhibition of doxorubicin-induced apoptosis when transfected into MCF7 cells. Fluorescence Polarization Peptide Binding Assay Polarization experiments were performed on an Analyst HT 96-384 (Molecular Devices Corp.) according to the procedure of […]., Zioncheck, K., Clark, K., Arellano, F., and Bodary., S.(2000) in Proceedings of SPIE : In Vitro Diagnostic Instrumentation (Cohn, G. E., Ed.) pp 128-137, Bellingham, Wash. […] Fluorescence values were plotted as a function of the protein concentration, and the IC50s were obtained by fitting the data to a 4-parameter equation using Kaleidograph software (Synergy software, Reading, Pa.). […] Samples were read after a 10-minute incubation. Fluorescence polarization values were plotted as a function of the antagonist concentration, and the IC50 values were obtained by fitting the data to a 4-parameter equation using Kaleidograph software (Synergy software, Reading, Pa.). Inhibition constants (Ki) for the antagonists were determined from the IC50 values.
Background: Fluorescence polarisation rises when a labelled molecule tumbles more slowly, as on binding a larger partner.

SMILES strings stand for the structures.

Turning to `CN[C@@H](C)C(=O)N[C@H](C(=O)N1CCC2CCC(NC(=O)C(c3ccccc3)c3ccc(F)cc3)C21)C(C)(C)C` (stereo partly drawn) [Compound 4], the IC50 at MLXBIR3SG [1] was less than 10 µM. Also, at MLXBIR3SG [2], the Ki was less than 0.2 µM and the IC50 was less than 1 µM. The corresponding values for `CN[C@@H](C)C(=O)N[C@H](C(=O)N1CCC2CCC(NC(=O)c3c(OC)ccc4ccccc34)C21)C(C)(C)C` (stereo partly drawn) [Compound 12] are less than 10 µM, less than 0.2 µM and less than 1 µM. As to `COc1ccc2ccccc2c1C(=O)NC1CCC2CCN(C(=O)C(NC(=O)C(C)N)C(C)C)C21` (stereo not drawn) [Compound 5], at MLXBIR3SG [1], the IC50 is less than 10 µM. The same measure, in the same setting: under `CN[C@@H](C)C(=O)N[C@H](C(=O)N1CCC2CCC(NC(=O)c3cccc4ccccc34)C21)C(C)(C)C` (stereo partly drawn) [Compound 21] stands less than 10 µM. Consider `CN[C@@H](C)C(=O)N[C@H](C(=O)N1CCC2CCC(NC(=O)c3cccc4ccccc34)C21)C1CCCCC1` (stereo partly drawn) [Compound 28], for which the IC50 on MLXBIR3SG [1] is less than 10 µM. For the compound `CN[C@@H](C)C(=O)N[C@H](C(=O)N1CCC2CCC(NC(=O)c3ccc(F)c4ccccc34)C21)C(C)(C)C` (stereo partly drawn) [Compound 24], the IC50 on MLXBIR3SG [1] is less than 10 µM. In addition, on MLXBIR3SG [2], the Ki is less than 0.2 µM and the IC50 was less than 1 µM.

`CN[C@@H](C)C(=O)N[C@H](C(=O)N1CCC2CCC(NC(=O)c3coc4ccccc34)C21)C(C)(C)C` (stereo partly drawn) [Compound 11]: at MLXBIR3SG [1], the IC50 is less than 10 µM. `CN[C@@H](C)C(=O)N[C@H](C(=O)N1CCC2CCC(NC(=O)c3ccc(C)c4ccccc34)C21)C(C)(C)C` (stereo partly drawn) [Compound 6]: the IC50 at MLXBIR3SG [1] is less than 10 µM. Moreover, on MLXBIR3SG [2], the Ki is less than 0.2 µM and the IC50 was less than 1 µM.

Take `C[C@H](N)C(=O)N[C@H](C(=O)N1CCC2CCC(NC(=O)c3cccc4ccccc34)C21)C(C)(C)C` (stereo partly drawn) [Compound 13]: the IC50 on MLXBIR3SG [1] was less than 10 µM. The same measure, in the same setting: the same measure for `CN[C@@H](C)C(=O)N[C@H](C(=O)N1CCC2CCC(NC(=O)c3ccccc3)C21)C(C)(C)C` (stereo partly drawn) [Compound 14]: less than 10 µM; for `CNC(C)C(=O)NC(C(=O)N1CCC2CCC(NC(=O)C(c3ccccc3)c3ccccc3)C21)C(C)(C)C` (stereo not drawn) [Compound 9]: less than 10 µM. Take `CN[C@@H](C)C(=O)N[C@H](C(=O)N1CCC2CCC(NC(=O)c3csc4ccccc34)C21)C(C)(C)C` (stereo partly drawn) [Compound 16]: on MLXBIR3SG [1], the 50% inhibitory concentration (IC50) is less than 10 µM. At MLXBIR3SG [2], the Ki is less than 0.2 µM and the IC50 is less than 1 µM.

Turning to `CN[C@@H](C)C(=O)N[C@H](C(=O)N1CCC2CCC(NC(=O)C3COc4ccccc43)C21)C(C)(C)C` (stereo partly drawn) [Compound 3], the IC50 on MLXBIR3SG [1] is less than 10 µM. Same read-out and setting: under `C[C@H](N)C(=O)N[C@H](C(=O)N1CCC2CCC(NC(=O)C(c3ccccc3)c3ccccc3)C21)C(C)(C)C` (stereo partly drawn) [Compound 22] stands less than 10 µM.

Broadly, the IC50 is the concentration that gives 50% inhibition. A word on the Ki: it is the equilibrium dissociation constant of an inhibitor or competing ligand from its target.
